{
  "source": "patent US20250195415A1",
  "about": "“BIODEGRADABLE CONTROLLED RELEASE ANTIVIRAL AGENT IMPLANTS” (Yale University, priority 2022, published 2025)",
  "key": {"[1]": {"conditions": "rodents; cited from earlier work"}, "[2]": {"molecular_target": "T1, human mitochondrial DNA polymerase (Homo sapiens, UniProt P54098)", "T1 sequence (P54098 1-1239)": "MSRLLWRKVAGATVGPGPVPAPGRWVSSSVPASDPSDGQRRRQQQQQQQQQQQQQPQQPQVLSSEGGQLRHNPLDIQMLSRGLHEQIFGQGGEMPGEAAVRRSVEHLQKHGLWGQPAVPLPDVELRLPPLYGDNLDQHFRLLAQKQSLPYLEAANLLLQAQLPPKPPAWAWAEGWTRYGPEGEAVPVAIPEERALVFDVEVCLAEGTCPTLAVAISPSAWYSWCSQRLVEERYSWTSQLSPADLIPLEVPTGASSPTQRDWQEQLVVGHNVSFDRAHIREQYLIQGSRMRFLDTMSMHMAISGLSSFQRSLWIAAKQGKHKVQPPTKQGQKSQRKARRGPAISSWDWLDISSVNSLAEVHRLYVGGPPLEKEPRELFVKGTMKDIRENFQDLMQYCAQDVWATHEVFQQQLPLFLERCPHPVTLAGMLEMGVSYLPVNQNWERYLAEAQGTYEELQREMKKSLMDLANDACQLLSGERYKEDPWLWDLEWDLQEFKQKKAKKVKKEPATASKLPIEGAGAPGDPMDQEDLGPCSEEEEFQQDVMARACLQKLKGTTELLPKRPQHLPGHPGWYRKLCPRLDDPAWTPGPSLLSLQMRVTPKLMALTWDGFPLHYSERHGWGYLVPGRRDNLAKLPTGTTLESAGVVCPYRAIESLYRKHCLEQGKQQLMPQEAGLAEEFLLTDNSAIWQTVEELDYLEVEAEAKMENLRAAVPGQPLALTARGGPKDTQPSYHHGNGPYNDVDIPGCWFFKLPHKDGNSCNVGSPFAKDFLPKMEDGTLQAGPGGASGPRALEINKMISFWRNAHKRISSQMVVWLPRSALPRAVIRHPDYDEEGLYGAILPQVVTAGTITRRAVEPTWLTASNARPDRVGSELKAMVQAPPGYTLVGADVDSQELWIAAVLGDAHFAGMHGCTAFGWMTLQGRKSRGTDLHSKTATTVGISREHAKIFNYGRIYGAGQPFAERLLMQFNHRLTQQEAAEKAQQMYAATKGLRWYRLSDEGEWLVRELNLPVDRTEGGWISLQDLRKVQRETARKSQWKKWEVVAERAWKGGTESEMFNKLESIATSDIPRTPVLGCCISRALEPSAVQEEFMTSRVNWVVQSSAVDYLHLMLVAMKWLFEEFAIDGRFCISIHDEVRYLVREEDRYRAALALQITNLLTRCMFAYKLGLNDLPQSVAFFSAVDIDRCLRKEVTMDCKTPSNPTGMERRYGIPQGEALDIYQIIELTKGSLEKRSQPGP", "conditions": "previous studies; cited from earlier work"}, "[3]": {"assay": "Pharmacokinetic studies for implants and NPs in Hu-PBL mice", "type": "in vivo", "conditions": "for concentration at 42 d / concentration at 56 d / AUC(0-t): NSG (NOD.Cg-Prkdcscid Il2rgtm1Wjl/SzJ), Hu-PBL, mouse; for concentration at 42 d / concentration at 56 d: plasma; for concentration at 42 d: intraperitoneal, day 42; for AUC(0-t): serum", "method": "NOD.Cg-Prkdcscid Il2rgtm1 Wjl/SzJ (NSG) mice were purchased from the Jackson Laboratory (Bar Harbor, ME) and bred and maintained at Yale University (New Haven, CT) according to guidelines established by the Institutional Animal Committee. All experiments were performed according to protocols approved by the Institutional Review Board and the Institutional Animal Care and Use Committee of Yale University. NSG-Hu-PBL mice were engrafted. Briefly, 10×10^6 peripheral blood mononuclear cells (PBMC), purified by Ficoll density gradient centrifugation of healthy donor blood (obtained from the New York Blood Bank) were injected intraperitoneally in a 200 μl volume into 6- to 12-week-old NSG mice (Jackson Laboratory), using a 1 cm^3 syringe and 25-gauge needle. Mice were retro-orbitally bled to collect 70-100 μl of blood.\nTwo NSG mice were injected intraperitoneally (i.p.) with Compound I-NP (190 mg/kg) and EFdA (10 mg/kg) suspended in sterile saline solution. The blood samples were collected at predetermined time points from the ocular venous plexus by retro-orbital venipuncture and used for subsequent HPLC analysis.\nMice were anesthetized by intraperitoneal injection of ketamine (80 mg/kg) and xylazine (12 mg/kg) in PBS (10 ml/kg) based on individual mouse body weight. After anesthetizing, approximately 1-2 cm square of the dorsal skin was shaved using an electric hair clipper, the area was cleaned with ethanol and disinfected with betadine. Using a sterile disposable surgical blade, an incision of 4-5 mm was made through the skin. Gently, 2 cm×3 cm subcutaneous pockets were created with forceps and implants loaded with EFdA and Compound I were co-inserted at the same site. The opening was sutured using absorbable sutures followed by subcutaneous administration of 0.05 mg/kg buprenorphine. The animals were kept warm using the temperature-controlled heating pads until they regained consciousness. Toxicity was evaluated by clinical observations, eageside observations (twice daily), and body weight (at least weekly).\nTo determine dose-dependent serum agent concentrations, in vivo pharmacokinetics of Compound I and EFdA implants, and Compound I-NP and EFdA-NP were investigated in Hu-PBL mice. The blood samples were collected at predetermined time points from the ocular venous plexus by retro orbital venipuncture and serum was used for subsequent HPLC analysis."}, "HIV-1 [4]": {"system": "HIV-1", "assay": "HIV cellular assays (HIV cell culture), antiviral potency"}, "[5]": {"conditions": "cited from earlier work"}, "[6]": {"assay": "In vitro drug release from poly(EB-co-DO) implants with mathematical diffusion model", "type": "physicochemical", "conditions": "for Diffusion Coefficient: 28 % Loading, P4 (37k, 20% DO) implants", "method": "Drug-loaded poly(EB-co-DO) implants (1 cm long, 2.4 mm diameter, 50 mg) were individually incubated in 1 mL of PBS solution (pH=7.4) containing 3% methyl-beta-cyclodextrin (M-β-CD) at 37° C. At selected time points, the buffer solution was completely replaced with fresh solution of the same composition. The collected buffer solutions, in which the implant had been continuously and completely bathed for a period of time, were flash frozen and lyophilized. High-performance liquid chromatography (HPLC) was then used to determine the representative drug loading of implants in each group.\nThe samples were then centrifuged at 3000 rpm for 5 min to draw out any salts and M-β-CD. The supernatant was passed through 0.22 um syringe filters before being analyzed by HPLC for drug content.\nAn Agilent column (883995-906, ZORBAX StableBond 300 C8, 4.6×150 mm, 5 μm) and Shimadzu HPLC system (LC-2030C) with a UV-Vis detector was used for drug quantitation. […] Initial solvent B concentration was set at 5% and allowed to increase to 100% by the 5th minute. Flow was maintained for 5 min at this level before dropping to 5% after 12 min, which was maintained until the end of the run at 13 minutes. For analysis of DTG drug release, Solvent A was 0.1% TFA in HPLC grade water, and solvent B was 100% methanol. Initial solvent B concentration was set at 55% and increased to 60% for the 6-7th minute before being brought back down to 55% for the 7-10th minute. All three drugs were detected using a UV detector at a wavelength of 240 nm. […] A volume of 45 μl was injected for each sample run.\nFick's second law of diffusion appropriately models drug transport across polymeric matrixes by proportionally relating the diffusion rate at time, t, to the concentration gradient of drug in the implant, ∂C/∂r. As shown in the equation below (1), a one-dimensional, radial release from our cylindrical implants was adopted, with a constant drug diffusion coefficient, D.\nThe solution for the above partial differential equation requires specification of a set of initial conditions and boundary conditions. For the initial condition (t=0), a homogenous and uniform concentration of drug throughout the implant was adopted, C=C0. A symmetry boundary condition is further applied at the center of the implant (r=0) as flux across the plane of symmetry is zero, ∂C/∂r=0. Lastly, a perfect-sink boundary condition is applied at the surface of implant (r=R), C=0. […] In vitro release, then, is determined from the mass of drug in the implant at each time point subtracted from initial mass of drug within the implant (Co*V). Lastly, the diffusion coefficient is determined by fitting the cumulative drug release profile to data from in vitro drug release experiments and minimizing root mean squared error (RMSE)."}, "[7]": {"conditions": "cited from earlier work", "remark": "listed apart in the source"}, "HIV-1 [8]": {"system": "HIV-1", "conditions": "week 48, with FTC/TDF or ABC/3TC; cited from earlier work"}, "[9]": {"assay": "Biocompatibility study, subcutaneous implantation in mice", "conditions": "mouse, in vivo, sc", "method": "To examine tissue responses and in vivo degradation of these implants, unloaded 20% DO implants (P4) were used and examined histological sections and polymer properties over a period of 8 months after subcutaneous implantation. Implants of ˜10 to 15 mg were implanted in the subdermal layer of 16 mice. […] implants were extracted every two months; half of the implants were used for histological examination while the other half were used to characterize the polymer using GPC and NMR (FIGS. 15A and 15B). […] This decrease in Mw (73%) during the first four months is slightly less than observed in vitro degradation, where there was an 84% decrease in Mw after four months of incubation in PBS buffer at 37° C. […] This trend can likely be attributed to the highly degradable PDO polymeric segments of the copolymer. In terms of structural integrity of the implants, the implants appeared intact at 8 months and were firm enough to be picked up by tweezers without damage to the implant."}},
  "note": "Like-named read-outs stand apart in the source and are kept apart here.",
  "data": [
    {"compound": "C#C[C@]1(CO)O[C@@H](n2cnc3c(N)nc(F)nc32)C[C@@H]1O", "note": "[EFdA, 4′-Ethynyl-2-fluoro-2′-deoxyadenosine]", "values": [
      {"measurement": "time of sustained levels of agent from implants", "setting": "[1]", "result": "up to 6 months"},
      {"measurement": "substrate for human mitochondrial DNA polymerase", "setting": "[2]", "result": "poor substrate"},
      {"measurement": "increase in serum concentration", "setting": "[3]; NPs, day 14-post infection", "result": 21, "unit": "%"},
      {"measurement": "decline in serum concentration after day 21", "setting": "[3]; NPs, over the next three weeks", "result": "two-fold decline"},
      {"measurement": "clearance", "setting": "[3]; NPs, single i.p. dose, co-administered", "result": 1.2, "unit": "mL/h/kg"},
      {"measurement": "concentration at 42 d", "setting": "[3]; NPs, read-out: plasma level maintained at end of experiment", "result": "≥ 4000", "unit": "ng/mL"},
      {"measurement": "concentration at 42 d", "setting": "[3]; NPs, read-out: plasma level maintained at end of experiment (molar)", "result": "≥ 13", "unit": "µM"},
      {"measurement": "concentration at 56 d", "setting": "[3]; subcutaneous, implants, day 56, read-out: sustained plasma concentration at end of experiment", "result": 7500, "unit": "ng/mL"},
      {"measurement": "concentration at 56 d", "setting": "[3]; subcutaneous, implants, day 56, read-out: sustained plasma concentration at end of experiment (molar)", "result": 25, "unit": "µM"},
      {"measurement": "AUC(0-t)", "setting": "[3]; ip, NPs, single i.p. dose, co-administered", "result": 6980, "unit": "µg·h/mL"},
      {"measurement": "AUC(0-t)", "setting": "[3]; subcutaneous, co-implanted poly(PDL-co-DO) implants, 56 d", "result": 9130, "unit": "µg·h/mL"},
      {"measurement": "serum level fold higher than the cellular EC50", "setting": "[3]; implants, day 14", "result": "11,000 fold"},
      {"measurement": "fold decrease in serum concentration compared to day 28", "setting": "[3]; implants, day 35 post-implantation", "result": 5, "unit": "fold"},
      {"measurement": "plasma concentration fold above the EC90", "setting": "[3]; implants, day 56", "result": "~1600", "unit": "fold"},
      {"measurement": "EC50", "setting": "HIV-1 [4]; Human immunodeficiency virus 1, read-out: effective concentrations (EC50)", "result": 1.9, "unit": "nM"},
      {"measurement": "IC90 / EC90 in HIV cell culture", "setting": "HIV-1 [4]; calculated from EC50 with Hill slope of 1", "result": 17.1, "unit": "nM"}
    ]},
    {"compound": "C[C@@H]1C[C@H]2[C@@H]3CCC4=CC(=O)C=C[C@]4(C)[C@@]3(F)[C@@H](O)C[C@]2(C)[C@@]1(O)C(=O)CO", "note": "[DEX, dexamethasone]", "values": [
      {"measurement": "log P", "setting": "[5]", "result": "1.6-1.9"},
      {"measurement": "Diffusion Coefficient", "setting": "[6]", "result": "3.7 × 10^−9 cm^2/sec"},
      {"measurement": "diffusion coefficient in porous EVAc implants", "setting": "[7]; 35% DEX loading", "result": "2.0×10^−10 cm^2/sec"},
      {"measurement": "diffusion coefficient in water", "setting": "[7]; radiolabeled DEX in saline, 37° C.", "result": "5.2×10^−6 cm^2/sec"}
    ]},
    {"compound": "C[C@@H]1CCO[C@H]2Cn3cc(C(=O)NCc4ccc(F)cc4F)c(=O)c(O)c3C(=O)N12", "note": "[DTG, dolutegravir]", "values": [
      {"measurement": "Diffusion Coefficient", "setting": "[6]", "result": "1.7 × 10^−9 cm^2/sec"},
      {"measurement": "burst release rates compared to DEX", "setting": "[6]; 28% loading, P4 implants", "result": "three-fold reduction in burst release rates"},
      {"measurement": "cumulative in vitro release compared to DEX from comparable implants", "setting": "[6]; 28% loading, P4 implants", "result": "slower cumulative release"}
    ]},
    {"compound": "Cn1c(Cn2ccc(C(F)(F)F)c(Oc3cc(Cl)cc(C#N)c3)c2=O)n[nH]c1=O", "note": "[doravirine]", "values": [
      {"measurement": "patients with plasma HIV-1 RNA of less than 50 copies/mL", "setting": "HIV-1 [8]", "result": 84, "unit": "%"}
    ]},
    {"compound": "poly(ethylene brassylate-co-dioxanone) [poly(EB-co-DO) implants]", "values": [
      {"measurement": "tolerability after subcutaneous implantation", "setting": "[9]", "result": "well tolerated"}
    ]}
  ]
}
